From ChEMBL document CHEMBL1128146, “Tricarbonyl 6 arene chromium (0) based antitumor agents” (Bioorg Med Chem Lett, 1995)

The compounds below were run on HCT-116 (assay: Inhibitory activity against HCT116 tumor cell line). Conditions: Homo sapiens.
Type: functional, cell-based

Row | IC50 | Compound
1 | 25 nM | CS(=O)(=O)OCCN(CCOS(C)(=O)=O)c1ccccc1
2 | 99 nM | CS(=O)(=O)OCCCN(CCCOS(C)(=O)=O)c1ccccc1
3 | 1900 nM | CC(C)(C)[Si](C)(C)OCCN(CCO[Si](C)(C)C(C)(C)C)c1ccccc1
